{
  "source": "patent US20180050993A1",
  "about": "“NOVEL FLUORINATED DERIVATIVES AS EGFR INHIBITORS USEFUL FOR TREATING CANCERS” (Trillium Therapeutics Inc., priority 2015, published 2018)",
  "key": {"HCC827": {"tested_on": "HCC827", "assay": "Comparison with 1st generation inhibitors against a lung cancer cell line (HCC827)", "assay_type": "cell-based", "conditions": "Homo sapiens, read-out: Biochemical IC50"}, "[1]": {"assay": "Brain and plasma concentrations after oral gavage in rat, sampling to 4 hours (Table 4)", "assay_type": "in vivo", "conditions": "Table 4 (4 hours); for Kp at 4 h: brain/plasma, po, 50 mg/kg"}, "[2]": {"assay": "Brain concentrations after PO administration in rat, peak at 8 hours (Table 5)", "assay_type": "in vivo", "conditions": "Table 5 (8 hours); for Kp at 8 h: brain/plasma, po, 50 mg/kg"}, "P-gp": {"molecular_target": "T1, P-gp (Homo sapiens, UniProt P08183)", "T1 construct": "host or cells: Caco-2 (C2BBe1)", "T1 sequence (P08183 whole entry)": "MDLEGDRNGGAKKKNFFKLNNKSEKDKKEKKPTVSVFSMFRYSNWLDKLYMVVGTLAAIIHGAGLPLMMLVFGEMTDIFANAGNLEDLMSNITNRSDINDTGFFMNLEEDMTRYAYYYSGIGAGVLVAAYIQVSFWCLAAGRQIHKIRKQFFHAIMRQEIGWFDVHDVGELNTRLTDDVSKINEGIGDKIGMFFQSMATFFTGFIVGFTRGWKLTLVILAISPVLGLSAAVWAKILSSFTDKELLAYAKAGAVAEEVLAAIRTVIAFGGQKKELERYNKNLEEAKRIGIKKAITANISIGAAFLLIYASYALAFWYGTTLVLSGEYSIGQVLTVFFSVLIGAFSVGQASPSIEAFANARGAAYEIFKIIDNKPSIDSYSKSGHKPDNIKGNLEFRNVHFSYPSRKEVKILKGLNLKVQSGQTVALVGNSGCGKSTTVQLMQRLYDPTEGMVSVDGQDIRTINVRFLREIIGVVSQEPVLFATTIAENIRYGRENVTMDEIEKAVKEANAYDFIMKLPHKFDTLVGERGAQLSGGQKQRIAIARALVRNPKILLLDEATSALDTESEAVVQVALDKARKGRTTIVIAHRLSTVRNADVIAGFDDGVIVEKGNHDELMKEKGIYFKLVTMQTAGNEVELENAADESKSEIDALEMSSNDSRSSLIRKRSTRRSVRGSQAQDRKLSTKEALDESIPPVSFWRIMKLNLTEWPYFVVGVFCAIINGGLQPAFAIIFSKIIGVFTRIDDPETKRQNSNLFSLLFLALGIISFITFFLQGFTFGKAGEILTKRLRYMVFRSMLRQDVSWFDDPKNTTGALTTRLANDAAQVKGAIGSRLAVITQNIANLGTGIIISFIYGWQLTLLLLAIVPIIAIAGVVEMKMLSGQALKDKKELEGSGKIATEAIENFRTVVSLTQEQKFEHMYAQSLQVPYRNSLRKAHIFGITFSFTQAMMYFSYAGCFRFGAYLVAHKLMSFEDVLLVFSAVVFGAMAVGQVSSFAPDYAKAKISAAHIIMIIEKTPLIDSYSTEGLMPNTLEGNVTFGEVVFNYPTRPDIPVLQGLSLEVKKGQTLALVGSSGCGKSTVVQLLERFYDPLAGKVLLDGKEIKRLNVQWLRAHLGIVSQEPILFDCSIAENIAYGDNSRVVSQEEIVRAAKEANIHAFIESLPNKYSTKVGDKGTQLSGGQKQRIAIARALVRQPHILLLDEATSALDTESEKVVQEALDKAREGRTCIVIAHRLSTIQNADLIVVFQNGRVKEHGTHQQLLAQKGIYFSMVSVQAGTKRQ", "assay": "Evaluation of P-gp efflux in Caco-2 cell monolayers;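 also: Caco-2 monolayers dosed apically or basolaterally with test compound at 5 µM in HBSS with HEPES and glucose, 37 °C, donor and receiver sampled after 120 min, LC/MS peak areas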", "assay_type": "in vitro ADME"}, "CAKI-1": {"tested_on": "CAKI-1", "assay": "NCI screening panel, growth %", "assay_type": "cell-based, human", "conditions": "Renal", "experimental": "(§1) After 24 h, two plates of each cell line are fixed in situ with TCA, to represent a measurement of the cell population for each cell line at the time of drug addition (Tz). Experimental drugs are solubilised in dimethyl sulfoxide at 400-fold the desired final maximum test concentration and stored frozen prior to use. At the time of drug addition, an aliquot of frozen concentrate is thawed and diluted to twice the desired final maximum test concentration with complete medium containing 50 μg/ml gentamicin. Additional four, 10-fold or log serial dilutions are made to provide a total of five drug concentrations plus control. Aliquots of 100 μl of these different drug dilutions are added to the appropriate microtiter wells already containing 100 μl of medium, resulting in the required final drug concentrations.\n(§2) Following drug addition, the plates are incubated for an additional 48 h at 37° C., 5% CO2, 95% air, and 100% relative humidity. For adherent cells, the assay is terminated by the addition of cold TCA (trichloroacetic acid). Cells are fixed in situ by the gentle addition of 50 μl of cold 50% (w/v) TCA (final concentration, 10% TCA) and incubated for 60 minutes at 4° C. The supernatant is discarded, and the plates are washed five times with tap water and air dried. Sulforhodamine B (SRB) solution (100 μl) at 0.4% (w/v) in 1% acetic acid is added to each well, and plates are incubated for 10 minutes at room temperature. After staining, unbound dye is removed by washing five times with 1% acetic acid and the plates are air dried. Bound stain is subsequently solubilised with 10 mM trizma base, and the absorbance is read on an automated plate reader at a wavelength of 515 nm. For suspension cells, the methodology is the same except that the assay is terminated by fixing settled cells at the bottom of the wells by gently adding 50 μl of 80% TCA (final concentration, 16% TCA). Using the seven absorbance measurements [time zero, […], control growth, (C), and test growth in the presence of drug at the five concentration levels (Ti)], the percentage growth is calculated at each of the drug concentration levels. Percentage growth inhibition is calculated as: [(Ti−Tz)/(C−Tz)]×100 for concentrations in which Ti>/=Tz and [(Ti−Tz)/Tz]×100 for concentrations in which Ti<Tz.\n(§3) Three dose response parameters are calculated for each experimental agent. […] The drug concentration resulting in total growth inhibition (TGI) is calculated from Ti=Tz. […] Values are calculated for each of these three parameters if the level of activity is reached. However, if the effect is not reached or is exceeded, the value for that parameter is expressed as greater or less than the maximum or minimum concentration tested."}, "EKVX": {"tested_on": "EKVX", "assay": "NCI screening panel, growth %", "assay_type": "cell-based, human", "conditions": "NSCLC", "experimental": "as §1, §2, §3"}, "HCC-2998": {"tested_on": "HCC-2998", "assay": "NCI screening panel, growth %", "assay_type": "cell-based, human", "conditions": "Colon", "experimental": "as §1, §2, §3"}, "TK-10": {"tested_on": "TK-10", "assay": "NCI screening panel, growth %", "assay_type": "cell-based, human", "conditions": "Renal", "experimental": "as §1, §2, §3"}, "EPHA6 [3]": {"molecular_target": "T2, EPHA6 (Homo sapiens, UniProt Q9UF33)", "T2 sequence (Q9UF33 23-1036)": "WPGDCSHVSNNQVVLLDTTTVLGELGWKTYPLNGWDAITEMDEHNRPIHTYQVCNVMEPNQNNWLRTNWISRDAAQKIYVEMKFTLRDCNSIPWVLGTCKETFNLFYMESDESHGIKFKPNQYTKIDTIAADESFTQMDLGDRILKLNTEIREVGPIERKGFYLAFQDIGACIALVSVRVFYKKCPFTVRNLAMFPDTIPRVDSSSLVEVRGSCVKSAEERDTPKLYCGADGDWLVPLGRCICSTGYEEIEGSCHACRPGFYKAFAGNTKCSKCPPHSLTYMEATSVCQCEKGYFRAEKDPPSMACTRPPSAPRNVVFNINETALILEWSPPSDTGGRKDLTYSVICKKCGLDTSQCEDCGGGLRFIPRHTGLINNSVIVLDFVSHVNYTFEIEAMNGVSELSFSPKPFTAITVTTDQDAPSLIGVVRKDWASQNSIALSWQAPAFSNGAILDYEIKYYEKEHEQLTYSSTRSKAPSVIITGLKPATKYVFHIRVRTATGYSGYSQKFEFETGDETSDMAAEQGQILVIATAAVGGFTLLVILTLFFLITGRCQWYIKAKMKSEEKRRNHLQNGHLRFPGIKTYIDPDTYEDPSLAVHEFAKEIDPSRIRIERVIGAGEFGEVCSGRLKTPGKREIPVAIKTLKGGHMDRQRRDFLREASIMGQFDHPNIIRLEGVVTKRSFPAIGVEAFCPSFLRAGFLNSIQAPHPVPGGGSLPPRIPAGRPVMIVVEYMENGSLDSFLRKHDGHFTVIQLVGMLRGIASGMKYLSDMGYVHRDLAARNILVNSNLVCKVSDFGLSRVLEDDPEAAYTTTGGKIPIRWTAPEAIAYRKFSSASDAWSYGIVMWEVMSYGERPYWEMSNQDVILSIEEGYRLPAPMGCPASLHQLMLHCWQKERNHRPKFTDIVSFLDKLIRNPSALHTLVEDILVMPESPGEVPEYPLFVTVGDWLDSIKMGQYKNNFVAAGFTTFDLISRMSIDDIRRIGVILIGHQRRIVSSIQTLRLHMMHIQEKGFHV", "assay": "Kinome screen at 300 nM (qPCR competition binding)", "set-up": "purchased DiscoveRx; host or cells: E. coli BL21-derived (T7 phage) or HEK-293", "conditions": "result in words"}, "EPHA6 [4]": {"molecular_target": "T2, EPHA6", "assay": "Binding constants (Kd) for EPHA6, kinase competition binding with qPCR readout"}, "[5]": {"conditions": "male, Sprague-Dawley (SD), brain tissue, PO 50 mg/kg"}, "[6]": {"conditions": "Sprague-Dawley, brain, PO 50 mg/kg"}},
  "note": "pIC50, pKd: −log10 of the molar value. Structures can show the parent of a compound that is named as a salt. Where two headings read alike, the source gives them in different places.",
  "data": [
    {"smiles": "Fc1ccc(Nc2ncnc3cc(OCCOC(F)F)c(OCCOC(F)F)cc23)c(F)c1Cl", "note": "[Compound 2D•HCl, N-(3-chloro-2,4-difluoro-phenyl)-6,7-bis[2-(difluoromethoxy)ethoxy]quinazolin-4-amine]", "values": [
      {"measurement": "pIC50", "setting": "HCC827", "result": 7.77},
      {"measurement": "AUClast", "setting": "[1]; brain tissue, PO 50 mg/kg", "result": 25272, "unit": "ng·h/g"},
      {"measurement": "Cmax", "setting": "[1]; [5]", "result": 8040, "unit": "ng/g"},
      {"measurement": "Tmax", "setting": "[1]; [5]", "result": 4, "unit": "h"},
      {"measurement": "Kp at 4 h", "setting": "[1]; male, Sprague-Dawley (SD), read-out: AUCLast Ratio (Brain/Plasma)", "result": 2.05},
      {"measurement": "Kp at 4 h", "setting": "[1]; male, Sprague-Dawley (SD), read-out: Cmax Ratio (Brain/Plasma)", "result": 2.01},
      {"measurement": "Cmax", "setting": "[2]; [6]", "result": 6340, "unit": "ng/g"},
      {"measurement": "Tmax", "setting": "[2]; [6]", "result": 8, "unit": "h"},
      {"measurement": "Kp at 8 h", "setting": "[2]; Sprague-Dawley, read-out: AUCLast Ratio (Brain/Plasma)", "result": 1.92},
      {"measurement": "Kp at 8 h", "setting": "[2]; Sprague-Dawley, read-out: Cmax Ratio (Brain/Plasma)", "result": 2.07},
      {"measurement": "AUCInf", "setting": "[2]; brain, PO 50 mg/kg", "result": 101339, "unit": "ng·h/g"},
      {"measurement": "AUClast", "setting": "[2]; brain, PO 50 mg/kg", "result": 99996, "unit": "ng·h/g"},
      {"measurement": "recovery at 120 min, 5 μM", "setting": "P-gp; Caco-2, pH 7.4, with none (verapamil 0 μM), Caco-2, Verapamil 0 μM, read-out: Recovery (%) AP-BL", "result": 21.8, "unit": "%"},
      {"measurement": "recovery at 120 min, 5 μM", "setting": "P-gp; Caco-2, pH 7.4, with none (verapamil 0 μM), Caco-2, Verapamil 0 μM, read-out: Recovery (%) BL-AP", "result": 30.4, "unit": "%"},
      {"measurement": "recovery at 120 min, 5 μM", "setting": "P-gp; Caco-2, pH 7.4, with verapamil 100 μM, Caco-2, Verapamil 100 μM, read-out: Recovery (%) AP-BL", "result": 29.7, "unit": "%"},
      {"measurement": "recovery at 120 min, 5 μM", "setting": "P-gp; Caco-2, pH 7.4, with verapamil 100 μM, Caco-2, Verapamil 100 μM, read-out: Recovery (%) BL-AP", "result": 28.9, "unit": "%"},
      {"measurement": "Papp A→B at 120 min, 5 μM", "setting": "P-gp; pH 7.4, Caco-2, Verapamil 0 μM", "result": 4.02, "unit": "×10⁻⁶ cm/s"},
      {"measurement": "Papp B→A at 120 min, 5 μM", "setting": "P-gp; pH 7.4, Caco-2, Verapamil 0 μM", "result": 2.33, "unit": "×10⁻⁶ cm/s"},
      {"measurement": "efflux ratio at 120 min, 5 µM", "setting": "P-gp; pH 7.4, Caco-2, Verapamil 0 μM", "result": 0.58},
      {"measurement": "Growth %", "setting": "CAKI-1", "result": 15.86, "unit": "%"},
      {"measurement": "Growth %", "setting": "EKVX", "result": 48.49, "unit": "%"},
      {"measurement": "Growth %", "setting": "HCC-2998", "result": 91.93, "unit": "%"},
      {"measurement": "Growth %", "setting": "TK-10", "result": 34.04, "unit": "%"},
      {"measurement": "selectivity over erlotinib for the ephrin receptor kinase, EPHA6", "setting": "EPHA6 [3]", "result": "did show selectivity over erlotinib"},
      {"measurement": "pKd", "setting": "EPHA6 [4]", "result": 8.60}
    ]}
  ]
}
